Patent US10668062B2, “Oxabicycloheptanes and oxabicycloheptenes for the treatment of diabetes” (priority 2012, dated 2020)
“Also recorded” adds a separate entry of the source.

How the values were obtained:
cancer cells = assay: Growth of cancer cells in mouse model systems; assay type: in vivo
From the text: (§1) The compounds used in the method of the present invention are protein phosphatase 2A (PP2A) inhibitors (Lu et al., 2009; U.S. Pat. No. 7,998,957 B2). […] It has also been shown that another structural homolog of these compounds, LB-107, is active when given orally to mice.
(§2) Disclosed herein is that PP2A inhibitors are effective in treating insulin resistance, Type 2 Diabetes and disorders related to Type 2 Diabetes. […] We have also shown that another structural homolog of these compounds, LB-107, is active when given orally to mice. LB-100 is entering clinical trials as a potential agent for enhancing the effectiveness of certain anticancer agents.

PP2A [1] = target: T1, PP2A (Homo sapiens, UniProt P67775); details: cited from earlier work
T1 construct: endogenous in cells; host or cells: human cancer cells
T1 sequence (P67775 whole entry): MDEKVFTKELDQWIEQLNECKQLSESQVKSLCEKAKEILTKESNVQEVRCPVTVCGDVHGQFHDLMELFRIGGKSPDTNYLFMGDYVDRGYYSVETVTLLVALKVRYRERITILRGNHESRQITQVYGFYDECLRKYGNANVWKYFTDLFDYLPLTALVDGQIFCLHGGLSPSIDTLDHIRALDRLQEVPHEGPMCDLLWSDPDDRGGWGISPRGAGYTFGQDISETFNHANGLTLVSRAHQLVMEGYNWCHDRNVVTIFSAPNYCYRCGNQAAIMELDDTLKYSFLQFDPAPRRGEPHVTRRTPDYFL
T1 sequence (P30153 whole entry partner): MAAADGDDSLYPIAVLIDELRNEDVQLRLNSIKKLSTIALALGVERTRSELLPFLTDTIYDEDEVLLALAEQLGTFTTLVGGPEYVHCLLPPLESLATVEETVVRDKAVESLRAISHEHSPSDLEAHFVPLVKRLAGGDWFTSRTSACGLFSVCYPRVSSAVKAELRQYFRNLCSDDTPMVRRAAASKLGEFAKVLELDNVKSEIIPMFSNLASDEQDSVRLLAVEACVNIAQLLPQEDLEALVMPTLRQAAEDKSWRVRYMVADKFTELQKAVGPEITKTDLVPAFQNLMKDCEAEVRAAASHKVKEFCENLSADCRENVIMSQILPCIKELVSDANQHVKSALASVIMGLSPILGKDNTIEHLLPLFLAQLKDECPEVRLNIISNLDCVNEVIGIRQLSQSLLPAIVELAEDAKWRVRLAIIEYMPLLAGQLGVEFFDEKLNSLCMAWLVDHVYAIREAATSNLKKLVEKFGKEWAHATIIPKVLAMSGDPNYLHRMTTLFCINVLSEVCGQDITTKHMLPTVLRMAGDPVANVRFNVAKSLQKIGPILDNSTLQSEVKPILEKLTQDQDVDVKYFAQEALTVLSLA

PP2A [2] = target: T1, PP2A; details: given parenterally in mice; cited from earlier work
[3] = Type 2 Diabetes related vascular injury in human patients (Example 5); assay type: in vivo; details: human patients diagnosed with Type 2 Diabetes
Akt = assay: Dephosphorylation and inactivation of Akt in mammalian cells (Example 3); assay type: cell-based; details: mammalian cells incl. fat, liver, muscle, endothelial cells, hepatocytes, pancreatic islet β-cells
[4] = Insulin resistance in human patients diagnosed with Type 2 Diabetes (Example 4); assay type: in vivo
[5] = Other symptoms and complications of Type 2 Diabetes (Example 6); assay type: in vivo; details: for effects of other dysfunctions associated with or caused by Type 2 Diabetes: atherosclerosis, low glucose tolerance, dyslipidemia, hyperlipidemia, hypertriglyceridemia, hypercholesterolemia; for complications associated with or caused by Type 2 Diabetes: in vivo
Toxicity studies in rats = assay type: in vivo; details: doses known to reduce PP2A activity in tissue
From the text: as §2

Toxicity studies in dogs = assay type: in vivo; details: doses known to reduce PP2A activity in tissue
From the text: as §2

endothelial barrier [6] = details: Zhou et al, 2012; cited from earlier work
endothelial barrier [7] = details: model of sepsis; by inhibition of PP2A activation; cited from earlier work
[8] = Activity when given orally to mice; assay type: in vivo; details: oral
From the text: as §1, §2

PP2A [9] = target: T2, PP2A (Rattus norvegicus, UniProt P63331); details: inhibition of PP2A activity; Galbo et al, 2011; cited from earlier work
T2 construct: rat liver cells exposed to palmitate, a fatty acid, PP2A activity is increased; host or cells: rat liver cells (endogenous PP2A)
T2 sequence (P63331 whole entry): as the sequence (P67775 whole entry) above, with V5L counted along it
T2 sequence (Q5XI34 1-589 partner): as the sequence (P30153 whole entry partner) above, with S324T counted along it

SMILES	growth of cancer cells in mouse model systems (cancer cells)	inhibition of PP2A in vitro in human cancer cells (PP2A [1])	inhibition of PP2A in xenografts of human tumor cells in mice (PP2A [2])	Type 2 Diabetes related vascular injury caused by disruption of the endothelial barrier [3]	Type 2 Diabetes related vascular injury in the liver, muscle, retina and pancreas [3]	activation of Akt (Akt)	dephosphorylation and inactivation of Akt by PP2A (Akt)	phosphorylation of Akt (Akt)	insulin resistance [4]	insulin sensitivity [4]	effects of other dysfunctions associated with or caused by Type 2 Diabetes [5]	complications associated with or caused by Type 2 Diabetes [5]	toxicity on intravenous administration (Toxicity studies in rats)	toxicity on intravenous administration (Toxicity studies in dogs)	induction of endothelial barrier injury by lipopolysaccharide and interferon gamma (endothelial barrier [6])	endothelial barrier function (endothelial barrier [7])	activity when given orally to mice [8]	impairment of insulin activity (PP2A [9])
CC(C)(C)OC(=O)N1CCN(C(=O)C2C(C(=O)O)[C@H]3CC[C@@H]2O3)CC1 (some centres unmarked) [LB-102]	inhibit the growth of cancer cells	inhibitors of PP2A	inhibitors of PP2A	reduce Type 2 Diabetes related vascular injury caused by disruption of the endothelial barrier	reduce Type 2 Diabetes related vascular injury in the liver, muscle, retina and pancreas	increase activation of Akt	reduce dephophorylation and inactivation of Akt	increase phosphorylation of Akt	reduce insulin resistance	increase insulin sensitivity	reduce the effects of other dysfunctions	reduce complications associated with or caused by Type 2 Diabetes	–	–	–	–	–	–
CN1CCN(C(=O)C2C(C(=O)O)[C@H]3CC[C@@H]2O3)CC1 (some centres unmarked) [LB-100]	inhibit the growth of cancer cells	inhibitors of PP2A	inhibitors of PP2A	reduce Type 2 Diabetes related vascular injury caused by disruption of the endothelial barrier	reduce Type 2 Diabetes related vascular injury in the liver, muscle, retina and pancreas	increase activation of Akt	reduce dephophorylation and inactivation of Akt	increase phosphorylation of Akt	reduce insulin resistance	increase insulin sensitivity	reduce the effects of other dysfunctions	reduce complications associated with or caused by Type 2 Diabetes	without undue toxicity	without undue toxicity	–	–	–	–
O=C1O[C@H]([C@@H](O)CO)C(O)=C1O [ascorbic acid]	–	–	–	–	–	–	–	–	–	–	–	–	–	–	prevent the induction of endothelial barrier injury	improves endothelial barrier function	–	–
COC(=O)C1C(C(=O)N2CCN(C)CC2)[C@@H]2CC[C@H]1O2 (stereo in doubt) [LB-107, 3-(4-Methylpiperazine-1-carbonyl)-7-oxa-bicyclo[2,2,1]heptane-2-carboxylic acid methyl ester]	–	–	–	reduce Type 2 Diabetes related vascular injury caused by disruption of the endothelial barrier	reduce Type 2 Diabetes related vascular injury in the liver, muscle, retina and pancreas	increase activation of Akt	reduce dephophorylation and inactivation of Akt	increase phosphorylation of Akt	reduce insulin resistance	increase insulin sensitivity	reduce the effects of other dysfunctions	reduce complications associated with or caused by Type 2 Diabetes	–	–	–	–	active	–
C=C1[C@@H](O)[C@@H]2O[C@]3(CC[C@H](/C=C/[C@@H](C)[C@@H]4CC(C)=C[C@@]5(O[C@H](C[C@@](C)(O)C(=O)O)CC[C@H]5O)O4)O3)CC[C@H]2O[C@@H]1[C@@H](O)C[C@H](C)[C@H]1O[C@@]2(CCCCO2)CC[C@H]1C [okadaic acid]	–	–	–	–	–	–	–	–	–	–	–	–	–	–	prevent the induction of endothelial barrier injury; also recorded: prevents the induction of endothelial barrier dysfunction	–	–	reversed the impairment of insulin activity
C[C@@]12C(=O)OC(=O)[C@]1(C)[C@H]1CC[C@@H]2O1 [cantharidin]	–	–	–	–	–	–	–	–	–	–	–	–	–	–	–	–	–	reversed the impairment of insulin activity
